Earlier results as cited in patent US8349353B2, “Controlled release cytotoxic agent compositions and methods for the treatment of otic disorders” (Otonomy, Inc., priority 2008, dated 2013).

Tested on: V2-R
Conditions: infusion into the scala tympani

Cc1ccccc1C(=O)Nc1ccc(C(=O)N2CCCC(N(C)C)c3ccccc32)cc1 (stereo not shown) [OPC-31260]
Meniere's disease symptoms: marked reduction of Meniere's disease symptoms
